Values of other authors, collected in patent publication US20230104323A1, “FORMULATIONS OF POLYBASIC DRUGS TO REDUCE MULTI-ORGAN TOXICITY” (priority 2019, published 2023).

System: healthy subjects
Conditions: plazomicin injection

Structure (SMILES): CN[C@@H]1[C@@H](O)[C@@H](O[C@@H]2[C@@H](O)[C@H](O[C@H]3OC(CNCCO)=CC[C@H]3N)[C@@H](N)C[C@H]2NC(=O)[C@@H](O)CCN)OC[C@]1(C)O [plazomicin]
- Nephrotoxicity and ototoxicity in humans: no nephrotoxicity and ototoxicity
